Measurements reported in patent publication US20110015267A1 (priority 2009, published 2011).
“Also recorded” adds a separate entry of the source. Where a name gives a salt, the structure may show the parent alone.

Assays:
[1] = Conventional valproates combined with L-carnitine inner salt in water; type: physicochemical; conditions: for Result When Combined With L-Carnitine Inner Salt in Water: dissolution / stability behaviour of the valproate in water
Excerpt: The inventor investigated methods for the preparation of long-needed, palatable liquid compositions having quantitatively precise defined proportions of valproate and L-carnitine in water. […] Instead, oily droplets of valproic acid adhered to the formulation vessel, making it impossible to formulate compositions having quantitatively precise defined proportions of valproate. […] This lack of purity renders it impossible to weigh calculated quantities of the magnesium valproate of '850 that are required for a quantitatively precise defined formulation and formulate a composition having the corresponding quantitatively precise defined proportions of valproate and L-carnitine; the weighed quantities of the magnesium valproate of '850 will contain variable proportions of impurities that are water-soluble, partially water-soluble, and water-insoluble as well as the magnesium valproate, and the resulting formulation will contain less than quantitatively precise proportions of valproate. […] Potassium valproate, cesium valproate, and rubidium valproate were not tested, because high concentrations of potassium, cesium, and rubidium are toxic.

[2] = Solubility limit of magnesium valproate salts in purified water USP (incremental addition)
Description: The experiment was repeated but valproate was added as L-carnitine magnesium valproate. Incremental portions of L-carnitine magnesium valproate were added to purified water until the solubility limit was reached, as indicated by the presence of white solid in the colorless aqueous supernatant. […] The solution was divided into portions, and known masses of L-carnitine inner salt, accurately weighed, were added to provide solutions having the compositions shown in Table 2. Each solution was tested by two analysts.

[3] = Method B: incremental addition of magnesium valproate salt to L-carnitine inner salt solution
[4] = Sterilization of liquid dosage form by heating or filtration; type: physicochemical
Excerpt: Therefore, aqueous solutions of the invention must be prepared to be free of microbial contaminants. Most preferably, water that has been purified to meet US Pharmacopeial standards is used in preparing aqueous solutions of the invention. [U.S. Pharmacopeia, Volume 32. U.S. Pharmacopeial Convention, Rockville, Md. USP Monograph entitled “Purified Water” and chapter entitled “Water for Pharmaceutical Purposes”<1231>.] Water can be purified in known ways to be free of trace contaminants and microbes that cause undesirable side reactions when administered therapeutically to a subject. However, L-carnitine decomposes when subjected to heating. Therefore, the inventor has used aseptic processing and sterilization by filtration through a filter having a pore-size sufficiently small to allow passage of the composition of the invention through the pores but prevent passage of microbes to prepare compositions for pharmaceutical use.
A palatable liquid dosage form of the invention is divided into portions. Each portion is subjected to sterilization by (a) heating or (b) filtration through a filter membrane having a […] pore size.

[5] = cited from earlier work
[6] = cited from earlier work; remark: listed apart in the source
[7] = reported; not tested by the inventor; cited from earlier work
[8] = with about 1,000 mg/mL L-carnitine

Compound: CCCC(CCC)C(=O)O [Divalproex sodium]
- Result When Combined With L-Carnitine Inner Salt in Water [1]: decomposed on addition to water

Compound: CCCC(CCC)C(=O)[O-].CCCC(CCC)C(=O)[O-].C[N+](C)(C)C[C@H](O)CC(=O)[O-].[Mg+2] [L-carnitine magnesium valproate, L-Carnitine magnesium valproate]
- solubility limit, valproate concentration of the solution [2]: about 150 mg/mL
- valproate concentration at the limit of solubility ([3]; in aqueous L-carnitine inner salt, about 1,000 mg/mL L-carnitine): about 150 mg/mL
- appearance of solution at the limit of solubility [3, 8]: clear and colorless
- odor of solution at the limit of solubility [3, 8]: no odor
- pH of solution [3, 8]: near neutral
- taste of solution at the limit of solubility [3, 8]: no taste

Compound: C[N+](C)(C)CC(O)CC(=O)[O-] [L-carnitine, L-Carnitine inner salt]
- stability when subjected to heating [4]: decomposes

Compound: CCCC(CCC)C(=O)[O-].[Na+] [Sodium valproate]
- Result When Combined With L-Carnitine Inner Salt in Water: solution appearance [1]: weighing. Solution was clear &
- Result When Combined With L-Carnitine Inner Salt in Water [1]: rapidly adsorbed water from the atmosphere; also recorded: Sodium valproate is hygroscopic

Compound: CCCC(CCC)C(=O)O [Valproic acid, 2-propylpentanoic acid]
- solubility in water [5]: very slightly soluble in water
- Result When Combined With L-Carnitine Inner Salt in Water ([1]; listed as valproic acid): poorly soluble in water

Compound: CCCC(CCC)C(=O)O [valproate]
- absorption from the gastrointestinal tract ([6]; all conventional dosage forms): rapidly and nearly completely absorbed
- time of peak plasma concentrations after ingestion ([6]; all conventional dosage forms): 1 to 4 h
- excreted in the urine as an L-carnitine ester ([6]; humans and other mammals): 3%
- metabolized by β- and ω-oxidations in mitochondria and the cytosol ([6]; humans and other mammals): 17%
- metabolized in the liver by direct glucuronidation ([6]; humans and other mammals): 80%

Compound: Calcium valproate
- carcinogenicity [7]: been reported to be carcinogenic.

Compound: Magnesium valproate
- Result When Combined With L-Carnitine Inner Salt in Water [1]: did not dissolve completely in water; also recorded: failed to dissolve completely;

Compound: Magnesium valproate hydrate
- pH of solution [3, 8]: near neutral
